Laboratory results: patent US20140323300A1, “HERBICIDAL COMPOUNDS” (SYNGENTA LIMITED, priority 2011, published 2014)

How the values were obtained:
Assay type in all cases: in vivo
[1] = tested on: Alopecurus myosuroides (ALOMY); assay: Post-emergence glasshouse herbicide test; settings: post-emergence (sprayed after 8 days cultivation), 1000 g/h, evaluated after 13 days, five point scale
Method in brief: (§1)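 Damage was rated 13 days after treatment on a five-point scale (1 = 0–19%, 5 = 80–100%). The compound, formulated in 50:50 acetone/water with 0.5% Tween 20, was sprayed at 1000 g/h on pots one day (pre) or 8 days (post) after sowing, kept in a glasshouse at 24/16° C, 14 h light, 65% humidity.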

[2] = tested on: Amaranthus retoflexus (AMARE); assay: Post-emergence glasshouse herbicide test; settings: post-emergence (sprayed after 8 days cultivation), 1000 g/h, evaluated after 13 days, five point scale
Method in brief: as §1

[3] = tested on: Echinochloa crus-galli (ECHCG); assay: Post-emergence glasshouse herbicide test; settings: post-emergence (sprayed after 8 days cultivation), 1000 g/h, evaluated after 13 days, five point scale
Method in brief: as §1

[4] = tested on: Setaria faberi (SETFA); assay: Post-emergence glasshouse herbicide test; settings: post-emergence (sprayed after 8 days cultivation), 1000 g/h, evaluated after 13 days, five point scale
Method in brief: as §1

[5] = tested on: Ipomoea hederacea (IPOHE); assay: Post-emergence glasshouse herbicide test; settings: post-emergence (sprayed after 8 days cultivation), 1000 g/h, evaluated after 13 days, five point scale
Method in brief: as §1

[6] = tested on: Solanum nigrum (SOLNI); assay: Post-emergence glasshouse herbicide test; settings: post-emergence (sprayed after 8 days cultivation), 1000 g/h, evaluated after 13 days, five point scale
Method in brief: as §1

[7] = tested on: Alopecurus myosuroides (ALOMY); assay: Pre-emergence glasshouse herbicide test; settings: pre-emergence (sprayed after one day cultivation), 1000 g/h, evaluated after 13 days, five point scale
Method in brief: as §1

[8] = tested on: Amaranthus retoflexus (AMARE); assay: Pre-emergence glasshouse herbicide test; settings: pre-emergence (sprayed after one day cultivation), 1000 g/h, evaluated after 13 days, five point scale
Method in brief: as §1

[9] = tested on: Echinochloa crus-galli (ECHCG); assay: Pre-emergence glasshouse herbicide test; settings: pre-emergence (sprayed after one day cultivation), 1000 g/h, evaluated after 13 days, five point scale
Method in brief: as §1

[10] = tested on: Setaria faberi (SETFA); assay: Pre-emergence glasshouse herbicide test; settings: pre-emergence (sprayed after one day cultivation), 1000 g/h, evaluated after 13 days, five point scale
Method in brief: as §1

[11] = tested on: Ipomoea hederacea (IPOHE); assay: Pre-emergence glasshouse herbicide test; settings: pre-emergence (sprayed after one day cultivation), 1000 g/h, evaluated after 13 days, five point scale
Method in brief: as §1

[12] = tested on: Solanum nigrum (SOLNI); assay: Pre-emergence glasshouse herbicide test; settings: pre-emergence (sprayed after one day cultivation), 1000 g/h, evaluated after 13 days, five point scale
Method in brief: as §1

Row | SMILES | percentage damage caused to the plant, POST Application ALOMY [1] | percentage damage caused to the plant, POST Application AMARE [2] | percentage damage caused to the plant, POST Application ECHCG [3] | percentage damage caused to the plant, POST Application SETFA [4] | percentage damage caused to the plant, POST Application IPOHE [5] | percentage damage caused to the plant, POST Application SOLNI [6] | percentage damage caused to the plant, PRE Application ALOMY [7] | percentage damage caused to the plant, PRE Application AMARE [8] | percentage damage caused to the plant, PRE Application ECHCG [9] | percentage damage caused to the plant, PRE Application SETFA [10] | percentage damage caused to the plant, PRE Application IPOHE [11] | percentage damage caused to the plant, PRE Application SOLNI [12]
1 | CCc1cnn(-c2ccc(C(F)(F)F)nc2C)c(=O)c1O [Compound 1.022] | 4 (4=60-79%) | 5 (5=80-100%) | 5 (5=80-100%) | 4 (4=60-79%) | 4 (4=60-79%) | 5 (5=80-100%) | 4 (4=60-79%) | 5 (5=80-100%) | 5 (5=80-100%) | 4 (4=60-79%) | 4 (4=60-79%) | 5 (5=80-100%)
2 | Cc1c(-n2ncc(S(C)(=O)=O)c(O)c2=O)ccc(S(C)(=O)=O)c1C1=NOCC1 [Compound 1.011, 2-[3-(4,5-dihydroisoxazol-3-yl)-2-methyl-4-methylsulfonyl-phenyl]-4-hydroxy-5-methylsulfonyl-pyridazin-3-one] | 5 (5=80-100%) | 5 (5=80-100%) | 5 (5=80-100%) | 5 (5=80-100%) | 5 (5=80-100%) | 5 (5=80-100%) | 5 (5=80-100%) | 5 (5=80-100%) | 5 (5=80-100%) | 5 (5=80-100%) | 5 (5=80-100%) | 5 (5=80-100%)
3 | Cc1nc(C(F)(F)F)ccc1-n1ncc(Cl)c(O)c1=O [Compound 1.019] | 5 (5=80-100%) | 5 (5=80-100%) | 5 (5=80-100%) | 5 (5=80-100%) | 5 (5=80-100%) | 5 (5=80-100%) | 5 (5=80-100%) | 5 (5=80-100%) | 5 (5=80-100%) | 5 (5=80-100%) | 5 (5=80-100%) | 5 (5=80-100%)
4 | CS(=O)(=O)c1cc(Cl)ccc1-n1ncc(S(C)(=O)=O)c(O)c1=O [Compound 1.047] | 1 (1=0-19%) | 2 (2=20-39%) | 1 (1=0-19%) | 1 (1=0-19%) | 2 (2=20-39%) | 2 (2=20-39%) | 1 (1=0-19%) | 2 (2=20-39%) | 1 (1=0-19%) | 1 (1=0-19%) | 2 (2=20-39%) | 2 (2=20-39%)
5 | Cc1nc(C(F)(F)F)ccc1-n1ncc([S+](C)[O-])c(O)c1=O (stereo not drawn) [Compound 1.030] | 2 (2=20-39%) | 4 (4=60-79%) | 5 (5=80-100%) | 5 (5=80-100%) | 3 (3=40-59%) | 5 (5=80-100%) | 2 (2=20-39%) | 4 (4=60-79%) | 5 (5=80-100%) | 5 (5=80-100%) | 3 (3=40-59%) | 5 (5=80-100%)
6 | C=Cc1cnn(-c2ccc(S(C)(=O)=O)c(C3=NOCC3)c2C)c(=O)c1O [Compound 1.006] | 4 (4=60-79%) | 5 (5=80-100%) | 5 (5=80-100%) | 5 (5=80-100%) | 5 (5=80-100%) | 5 (5=80-100%) | 1 (1=0-19%) | 5 (5=80-100%) | 5 (5=80-100%) | 4 (4=60-79%) | 4 (4=60-79%) | 5 (5=80-100%)
7 | CS(=O)(=O)c1ccc(-n2ncc(Cl)c(O)c2=O)c(Cl)c1C1=NOCC1 [Compound 1.017] | 5 (5=80-100%) | 5 (5=80-100%) | 5 (5=80-100%) | 5 (5=80-100%) | 5 (5=80-100%) | 5 (5=80-100%) | 5 (5=80-100%) | 5 (5=80-100%) | 5 (5=80-100%) | 5 (5=80-100%) | 5 (5=80-100%) | 5 (5=80-100%)
8 | CS(=O)(=O)c1cc(C(F)(F)F)ccc1-n1ncc(S(C)(=O)=O)c(O)c1=O [Compound 1.042] | 1 (1=0-19%) | 2 (2=20-39%) | 1 (1=0-19%) | 1 (1=0-19%) | 1 (1=0-19%) | 2 (2=20-39%) | 1 (1=0-19%) | 2 (2=20-39%) | 1 (1=0-19%) | 1 (1=0-19%) | 1 (1=0-19%) | 2 (2=20-39%)
9 | CSc1cnn(-c2ccc(C(F)(F)F)cc2S(C)(=O)=O)c(=O)c1O [Compound 1.034] | 1 (1=0-19%) | 5 (5=80-100%) | 4 (4=60-79%) | 3 (3=40-59%) | 4 (4=60-79%) | 5 (5=80-100%) | 1 (1=0-19%) | 5 (5=80-100%) | 4 (4=60-79%) | 3 (3=40-59%) | 4 (4=60-79%) | 5 (5=80-100%)
